{"source": "patent US7232690B1", "about": "“Method and device for detecting and isolating pharmacological compounds being contained in substance mixtures” (LTS Lohmann Therapie-Systeme AG, priority 1999, dated 2007)", "key": {"β2-adrenoreceptor": {"target": "β2-adrenoreceptor (Homo sapiens, UniProt P07550)", "sequence (P07550 whole entry)": "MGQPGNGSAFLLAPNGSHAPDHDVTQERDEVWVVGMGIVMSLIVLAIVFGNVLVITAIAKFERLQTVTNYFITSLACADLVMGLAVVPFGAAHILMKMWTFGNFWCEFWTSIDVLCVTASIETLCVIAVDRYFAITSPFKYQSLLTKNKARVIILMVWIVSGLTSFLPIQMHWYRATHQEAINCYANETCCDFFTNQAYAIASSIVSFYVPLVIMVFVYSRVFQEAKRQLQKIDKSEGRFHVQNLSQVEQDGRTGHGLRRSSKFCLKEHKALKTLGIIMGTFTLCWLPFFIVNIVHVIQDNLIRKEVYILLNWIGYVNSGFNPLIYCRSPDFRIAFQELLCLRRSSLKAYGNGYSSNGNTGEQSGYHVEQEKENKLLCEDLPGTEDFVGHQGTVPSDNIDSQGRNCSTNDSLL", "test": "Ultrafiltration target-binding test of extract of taraxacum with β2-adrenoreceptor membrane preparation (Example 3)"}, "Thrombin": {"target": "Thrombin (Homo sapiens, UniProt P00734)", "test": "Thrombin inhibition constant (Ki)", "format": "biochemical", "conditions": "read-out: Ki [μmol/l] Thrombin"}, "serine protease trypsin": {"tested_on": "serine protease trypsin", "test": "Ultrafiltration target-binding test of non-equimolar amidinophenylalanine mixture with trypsin (Example 2)", "conditions": "applied 6 8.4, 7 41.25, 10 2.5 μmol/l", "experimental": "Incubation of the substance library and the inhibitor with thrombin took place at room temperature within 1 hour; solvent: 0.9% of NaCl in H2O. The separation of the protein-ligand complexes formed was accomplished by ultrafiltration (centrifugal). All filtration procedures and washes were carried out until dryness of the filters.\nFilter: Microcon 10 (Amicon)\nCentrifugation conditions: 9981×g, room temperature\nWashing steps: 2×, each with 150 μl of 0.9% NaCl in H2O, 4° C.\nUltrafiltration and analysis of the filtrate were followed by washing steps and the liberation of the ligand (the active chemical substance) from the protein-ligand complex retained on the filter by treatment with 200 μl of water/methanol/TFA (49.5/49.5/1) at room temperature.\nThe blind sample (without thrombin) was treated analogously in all steps so that a comparison of the filtrates was possible. The filtrates obtained in all steps were dried by means of a speed-VAC concentrator, and later dissolved in the corresponding HPLC flow agent of defined amount applying ultrasound and agitation.\nIdentification of the ligands was accomplished by analytic HPLC: stationary phase Hypersil C 18 BDS, 3 μm, 150*0.3 mm, Fusica (LC Packings)—mobile phase: acetonitrile/water/TFA (35/65/0.01), isocratic, 5 μL/min, λ=[…].\nThe trypsin inhibitors of 3-amidinophenylalanine represented in the following by their structural formulae, were used as chemical substances, and the serine protease trypsin as target:\nThe experiments were performed as described in Example 1."}, "[1]": {"conditions": "Sample 351, no receptor, extract 1.5 mg (7.5 g/l)"}, "[2]": {"conditions": "Sample 355, receptor 1.04 pmol (5.2 nmol/l), extract 1.5 pmol (7.5 nmol/l)"}, "[3]": {"conditions": "Sample 356, receptor 1.04 pmol (5.2 nmol/l), extract 1.5 pmol (7.5 nmol/l)"}, "[4]": {"conditions": "Sample 360, no receptor, extract 0.3 mg (1.5 g/l)"}, "[5]": {"conditions": "Sample 361, receptor 1.04 pmol (5.2 nmol/l), extract 0.3 mg (1.5 g/l)"}, "[6]": {"conditions": "Sample 362, no receptor, extract 0.6 mg (3 g/l)"}, "[7]": {"conditions": "Sample 363, receptor 1.04 pmol (5.2 nmol/l), extract 0.6 mg (3 g/l)"}, "[8]": {"conditions": "Sample 364, no receptor, extract 1.0 mg (5.0 g/l)"}, "[9]": {"conditions": "Sample 365, receptor 1.04 pmol (5.2 nmol/l), extract 1.0 mg (5.0 g/l)"}, "[10]": {"conditions": "Sample 366, receptor 1.04 pmol (5.2 nmol/l), extract 1.5 mg (7.5 g/l)"}, "[11]": {"conditions": "Sample 367, receptor 1.04 pmol (5.2 nmol/l), extract 1.5 mg (7.5 g/l)"}, "[12]": {"conditions": "Sample 369, receptor 1.04 pmol (5.2 nmol/l), extract 1.5 mg (7.5 g/l)"}, "[13]": {"conditions": "Sample 373, receptor 1.04 pmol (5.2 nmol/l), extract 1.5 mg (7.5 g/l)"}, "[14]": {"conditions": "Sample 374, receptor 0.52 pmol (2.6 nmol/l), extract 1.5 mg (7.5 g/l)"}, "[15]": {"conditions": "Sample 375, receptor 0.26 pmol (1.3 nmol/l), extract 1.5 mg (7.5 g/l)"}}, "data": [{"smiles": "COc1cc(/C=C/C(=O)OC(C(=O)O)C(OC(=O)/C=C/c2ccc(O)c(OC)c2)C(=O)O)ccc1O", "note": "(stereo not drawn) [Substance L7, trans-diferoyl-tartaric acid ester]", "values": [{"measurement": "1st Wash", "setting": "β2-adrenoreceptor; [1]", "result": 748.2, "unit": "nmol/L"}, {"measurement": "2nd Wash", "setting": "β2-adrenoreceptor; [1]", "result": 145.5, "unit": "nmol/L"}, {"measurement": "Filtrate", "setting": "β2-adrenoreceptor; [1]", "result": 3802.1, "unit": "nmol/L"}, {"measurement": "Liberation", "setting": "β2-adrenoreceptor; [1]", "result": 22.7, "unit": "nmol/L"}, {"measurement": "1st Wash", "setting": "β2-adrenoreceptor; [2]", "result": 909.9, "unit": "nmol/L"}, {"measurement": "2nd Wash", "setting": "β2-adrenoreceptor; [2]", "result": 180.4, "unit": "nmol/L"}, {"measurement": "Filtrate", "setting": "β2-adrenoreceptor; [2]", "result": 1539.6, "unit": "nmol/L"}, {"measurement": "Liberation", "setting": "β2-adrenoreceptor; [2]", "result": 214.5, "unit": "nmol/L"}, {"measurement": "1st Wash", "setting": "β2-adrenoreceptor; [3]", "result": 1117.4, "unit": "nmol/L"}, {"measurement": "2nd Wash", "setting": "β2-adrenoreceptor; [3]", "result": 295.9, "unit": "nmol/L"}, {"measurement": "Filtrate", "setting": "β2-adrenoreceptor; [3]", "result": 2183.1, "unit": "nmol/L"}, {"measurement": "Liberation", "setting": "β2-adrenoreceptor; [3]", "result": 510.7, "unit": "nmol/L"}, {"measurement": "1st Wash", "setting": "β2-adrenoreceptor; [4]", "result": 129.6, "unit": "nmol/L"}, {"measurement": "2nd Wash", "setting": "β2-adrenoreceptor; [4]", "result": 6.6, "unit": "nmol/L"}, {"measurement": "Filtrate", "setting": "β2-adrenoreceptor; [4]", "result": 1268.8, "unit": "nmol/L"}, {"measurement": "Liberation", "setting": "β2-adrenoreceptor; [4]", "result": 8.6, "unit": "nmol/L"}, {"measurement": "1st Wash", "setting": "β2-adrenoreceptor; [5]", "result": 129.6, "unit": "nmol/L"}, {"measurement": "2nd Wash", "setting": "β2-adrenoreceptor; [5]", "result": 6.6, "unit": "nmol/L"}, {"measurement": "Filtrate", "setting": "β2-adrenoreceptor; [5]", "result": 1268.8, "unit": "nmol/L"}, {"measurement": "Liberation", "setting": "β2-adrenoreceptor; [5]", "result": 8.6, "unit": "nmol/L"}, {"measurement": "1st Wash", "setting": "β2-adrenoreceptor; [6]", "result": 176.5, "unit": "nmol/L"}, {"measurement": "2nd Wash", "setting": "β2-adrenoreceptor; [6]", "result": 33.7, "unit": "nmol/L"}, {"measurement": "Filtrate", "setting": "β2-adrenoreceptor; [6]", "result": 1423.2, "unit": "nmol/L"}, {"measurement": "Liberation", "setting": "β2-adrenoreceptor; [6]", "result": 7.5, "unit": "nmol/L"}, {"measurement": "1st Wash", "setting": "β2-adrenoreceptor; [7]", "result": 76.4, "unit": "nmol/L"}, {"measurement": "2nd Wash", "setting": "β2-adrenoreceptor; [7]", "result": 104.2, "unit": "nmol/L"}, {"measurement": "Filtrate", "setting": "β2-adrenoreceptor; [7]", "result": 1740.7, "unit": "nmol/L"}, {"measurement": "Liberation", "setting": "β2-adrenoreceptor; [7]", "result": 16.9, "unit": "nmol/L"}, {"measurement": "1st Wash", "setting": "β2-adrenoreceptor; [8]", "result": 92.7, "unit": "nmol/L"}, {"measurement": "2nd Wash", "setting": "β2-adrenoreceptor; [8]", "result": 30.1, "unit": "nmol/L"}, {"measurement": "Filtrate", "setting": "β2-adrenoreceptor; [8]", "result": 1829.6, "unit": "nmol/L"}, {"measurement": "Liberation", "setting": "β2-adrenoreceptor; [8]", "result": 89.6, "unit": "nmol/L"}, {"measurement": "1st Wash", "setting": "β2-adrenoreceptor; [9]", "result": 74.0, "unit": "nmol/L"}, {"measurement": "2nd Wash", "setting": "β2-adrenoreceptor; [9]", "result": 11.2, "unit": "nmol/L"}, {"measurement": "Filtrate", "setting": "β2-adrenoreceptor; [9]", "result": 2746.8, "unit": "nmol/L"}, {"measurement": "Liberation", "setting": "β2-adrenoreceptor; [9]", "result": 111.9, "unit": "nmol/L"}, {"measurement": "1st Wash", "setting": "β2-adrenoreceptor; [10]", "result": 1425.3, "unit": "nmol/L"}, {"measurement": "2nd Wash", "setting": "β2-adrenoreceptor; [10]", "result": 213.1, "unit": "nmol/L"}, {"measurement": "Filtrate", "setting": "β2-adrenoreceptor; [10]", "result": 4261.6, "unit": "nmol/L"}, {"measurement": "Liberation", "setting": "β2-adrenoreceptor; [10]", "result": 168.2, "unit": "nmol/L"}, {"measurement": "1st Wash", "setting": "β2-adrenoreceptor; [11]", "result": 1509.0, "unit": "nmol/L"}, {"measurement": "2nd Wash", "setting": "β2-adrenoreceptor; [11]", "result": 199.2, "unit": "nmol/L"}, {"measurement": "Filtrate", "setting": "β2-adrenoreceptor; [11]", "result": 6243.7, "unit": "nmol/L"}, {"measurement": "Liberation", "setting": "β2-adrenoreceptor; [11]", "result": 232.9, "unit": "nmol/L"}, {"measurement": "1st Wash", "setting": "β2-adrenoreceptor; [12]", "result": 986.8, "unit": "nmol/L"}, {"measurement": "2nd Wash", "setting": "β2-adrenoreceptor; [12]", "result": 221.7, "unit": "nmol/L"}, {"measurement": "Filtrate", "setting": "β2-adrenoreceptor; [12]", "result": 3505.8, "unit": "nmol/L"}, {"measurement": "Liberation", "setting": "β2-adrenoreceptor; [12]", "result": 378.7, "unit": "nmol/L"}, {"measurement": "1st Wash", "setting": "β2-adrenoreceptor; [13]", "result": 1176.5, "unit": "nmol/L"}, {"measurement": "2nd Wash", "setting": "β2-adrenoreceptor; [13]", "result": 285.4, "unit": "nmol/L"}, {"measurement": "Filtrate", "setting": "β2-adrenoreceptor; [13]", "result": 4900.2, "unit": "nmol/L"}, {"measurement": "Liberation", "setting": "β2-adrenoreceptor; [13]", "result": 847.8, "unit": "nmol/L"}, {"measurement": "1st Wash", "setting": "β2-adrenoreceptor; [14]", "result": 627.7, "unit": "nmol/L"}, {"measurement": "2nd Wash", "setting": "β2-adrenoreceptor; [14]", "result": 200.9, "unit": "nmol/L"}, {"measurement": "Filtrate", "setting": "β2-adrenoreceptor; [14]", "result": 5661.6, "unit": "nmol/L"}, {"measurement": "Liberation", "setting": "β2-adrenoreceptor; [14]", "result": 538.8, "unit": "nmol/L"}, {"measurement": "1st Wash", "setting": "β2-adrenoreceptor; [15]", "result": 631.3, "unit": "nmol/L"}, {"measurement": "2nd Wash", "setting": "β2-adrenoreceptor; [15]", "result": 112.3, "unit": "nmol/L"}, {"measurement": "Filtrate", "setting": "β2-adrenoreceptor; [15]", "result": 4921.4, "unit": "nmol/L"}, {"measurement": "Liberation", "setting": "β2-adrenoreceptor; [15]", "result": 154.4, "unit": "nmol/L"}]}, {"smiles": "N=C(N)c1cccc(CC(NS(=O)(=O)c2ccc3ccccc3c2)C(=O)N2CCCCC2)c1", "note": "(stereo not drawn) [Substance 7]", "values": [{"measurement": "Ki", "setting": "Thrombin", "result": 0.065, "unit": "µmol/L"}, {"measurement": "1st Wash", "setting": "serine protease trypsin; Sample 261, without trypsin", "result": 3.13, "unit": "µmol/L"}, {"measurement": "2nd Wash", "setting": "serine protease trypsin; Sample 261, without trypsin", "result": 0.26, "unit": "µmol/L"}, {"measurement": "Filtrate", "setting": "serine protease trypsin; Sample 261, without trypsin", "result": 31.57, "unit": "µmol/L"}, {"measurement": "Liberation", "setting": "serine protease trypsin; Sample 261, without trypsin", "result": 0.13, "unit": "µmol/L"}, {"measurement": "1st Wash", "setting": "serine protease trypsin; Sample 262, trypsin 50 μmol/l", "result": 3.68, "unit": "µmol/L"}, {"measurement": "2nd Wash", "setting": "serine protease trypsin; Sample 262, trypsin 50 μmol/l", "result": 1.29, "unit": "µmol/L"}, {"measurement": "Filtrate", "setting": "serine protease trypsin; Sample 262, trypsin 50 μmol/l", "result": 22.22, "unit": "µmol/L"}, {"measurement": "Liberation", "setting": "serine protease trypsin; Sample 262, trypsin 50 μmol/l", "result": 8.49, "unit": "µmol/L"}]}]}
